Assay results as given in PubChem BioAssay (NCI).
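Method: 48-hour compound exposure of cells in 96-well plates, five concentrations, linear interpolation of endpoints. GI50 marks 50% less growth. TGI: total growth inhibition.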

Columns and labels:
Test in all cases: NCI anticancer screen, dose series, 48 h
[1] = tested on: CCRF-CEM leukemia
[2] = tested on: COLO 205 colon
[3] = tested on: HL-60(TB) leukemia
[4] = tested on: SF-539 CNS
[5] = tested on: SK-MEL-28 melanoma
[6] = tested on: SN12C renal
[7] = tested on: SNB-75 CNS
[8] = tested on: OVCAR-5 ovarian
[9] = tested on: MDA-MB-435
[10] = tested on: PC-3 prostate

Work on COC(=O)C1=CN=C(C(=O)OC)NN1 yielded a TGI [1] greater than 100 µM, a TGI [2] greater than 100 µM and a TGI [3] greater than 100 µM. It also gave a TGI [4] greater than 100 µM, a TGI [5] greater than 100 µM and a TGI [6] greater than 100 µM. It also gave a TGI [7] greater than 100 µM.

Cc1oc2c(C)c(O)c3c(c2c1C1(C)OCCO1)C(=O)C=C(Cl)C3=O showed a TGI [1] greater than 100 µM, a TGI [2] greater than 100 µM and a TGI [3] greater than 100 µM. It also gave a TGI [8] greater than 100 µM, a TGI [4] greater than 100 µM and a TGI [5] greater than 100 µM. For the same compound, the TGI [6] was greater than 100 µM.

CN=C1Nc2ccc(Cl)cc2C(c2ccccc2)=NN1C gave a TGI [1] greater than 100 µM, a TGI [2] greater than 100 µM and a TGI [3] greater than 100 µM. For the same compound, the TGI [8] was greater than 100 µM, the TGI [4] was greater than 100 µM and the TGI [5] was greater than 100 µM. For the same compound, the TGI [6] was greater than 100 µM and the TGI [7] was greater than 100 µM.

In the case of C[C@@H](CO)OCOCc1ccccc1, the TGI [1] is reported as greater than 100 µM, the TGI [2] is reported as greater than 100 µM and the TGI [3] is reported as greater than 100 µM. For the same compound, the TGI [4] was greater than 100 µM, the TGI [5] was greater than 100 µM and the TGI [6] was greater than 100 µM. It also gave a TGI [7] greater than 100 µM.

Work on COC(=O)C1(C(=O)OC)CC2c3c(c4ccccc4n3C)CC(C1=O)N2Cc1ccccc1 (stereo unspecified) yielded a TGI [1] greater than 100 µM, a TGI [2] greater than 100 µM and a TGI [3] greater than 100 µM. For the same compound, the TGI [8] was greater than 100 µM, the TGI [4] was greater than 100 µM and the TGI [5] was greater than 100 µM. It also gave a TGI [6] greater than 100 µM and a TGI [7] of 92 µM.

For N.N.N.N.N.N.[I-].[Os], the GI50 [1] was greater than 100 µM, the TGI [1] was greater than 100 µM and the GI50 [2] was greater than 100 µM. The TGI [2] was greater than 100 µM, the GI50 [3] was greater than 100 µM and the TGI [3] was greater than 100 µM. The GI50 [8] was greater than 100 µM, the TGI [8] was greater than 100 µM and the GI50 [4] was greater than 100 µM. It also gave a TGI [4] greater than 100 µM, a GI50 [5] greater than 100 µM and a TGI [5] greater than 100 µM. The GI50 [6] was greater than 100 µM, the TGI [6] was greater than 100 µM and the GI50 [7] was greater than 100 µM. For the same compound, the TGI [7] was greater than 100 µM.

In the case of C/C=C/C=N/N(C(=O)c1cc([N+](=O)[O-])cc([N+](=O)[O-])c1)C1=NC(c2ccccc2)C(c2ccccc2)=NN1 (stereo unspecified), the TGI [1] is reported as greater than 100 µM, the TGI [2] is reported as 75 µM and the TGI [3] is reported as 55.6 µM. The TGI [8] was greater than 100 µM, the TGI [4] was greater than 100 µM and the TGI [5] was greater than 100 µM. For the same compound, the TGI [6] was greater than 100 µM and the TGI [7] was greater than 100 µM.

For CC#CS(=O)(=O)c1ccccc1, the TGI [2] was 24.7 µM, the TGI [3] was 3.81 µM and the TGI [9] was 22.9 µM. The TGI [8] was 18.2 µM, the TGI [10] was 25.2 µM and the TGI [4] was 15.5 µM. It also gave a TGI [5] of 12.6 µM, a TGI [6] of 19.4 µM and a TGI [7] of 13.9 µM.

COc1cc2nc(Sc3c([N+](=O)[O-])ncn3C)[nH]c2cc1OC gave a TGI [2] of 30.2 µM, a TGI [8] greater than 100 µM and a TGI [4] of 47.5 µM. It also gave a TGI [5] greater than 100 µM, a TGI [6] of 41.5 µM and a TGI [7] greater than 100 µM.
